As a reminder, the EC50 is the concentration at which the effect is half-maximal. Usually Kd stands for a measure of binding affinity in units of concentration. As a reminder, the IC50 is the concentration that inhibits the measured activity by half. Low readings indicate greater potency, high ones weaker potency.

Read-outs that look alike come from different tables or passages of the source.

One test deals with T1, hSTING-R232 (Homo sapiens, UniProt Q86WV6, H232R).
T1 construct: host or cells: THP1-Dual KI-hSTING-R232 (from THP1-Dual KO-STING)
T1 sequence (Q86WV6 whole entry H232R): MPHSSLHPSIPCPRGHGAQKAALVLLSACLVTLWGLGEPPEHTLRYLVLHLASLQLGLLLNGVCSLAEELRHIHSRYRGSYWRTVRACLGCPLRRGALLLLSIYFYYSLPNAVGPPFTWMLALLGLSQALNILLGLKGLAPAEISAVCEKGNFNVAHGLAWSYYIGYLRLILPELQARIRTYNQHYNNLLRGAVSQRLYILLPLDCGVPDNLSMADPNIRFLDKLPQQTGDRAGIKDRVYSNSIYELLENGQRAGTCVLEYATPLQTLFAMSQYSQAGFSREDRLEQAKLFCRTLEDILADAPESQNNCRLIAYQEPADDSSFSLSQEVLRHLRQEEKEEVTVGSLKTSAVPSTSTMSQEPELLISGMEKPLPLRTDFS
The experiment in a line: THP1-Dual KI-hSTING-R232 reporter assay (IRF pathway, secreted Lucia luciferase). The note with it: THP1-Dual KI-hSTING-R232 cells, 24 hours; read-out: Reporter assay EC50 (nM) THP-1-R232. In kind it is cell-based. For orientation: In a reporter assay the amount or activity of a reporter protein is the signal.

The target in a further test is T2, hSTING-HAQ haplotype (Homo sapiens, UniProt Q86WV6, G230A/H232R/R293Q/R71H).
T2 construct: host or cells: THP-1-Dual
T2 sequence (Q86WV6 whole entry R71H/G230A/H232R/R293Q): as the sequence (Q86WV6 whole entry H232R) above, with R71H, G230A, R293Q counted along it
Briefly: THP-1-Dual reporter assay (endogenous hSTING-HAQ). The note with it: THP-1-Dual cells (hSTING-HAQ), 24 hours. In kind it is cell-based.

Another test has as its target T3, mSTING (Mus musculus, UniProt Q3TBT3).
T3 sequence (Q3TBT3 1-378): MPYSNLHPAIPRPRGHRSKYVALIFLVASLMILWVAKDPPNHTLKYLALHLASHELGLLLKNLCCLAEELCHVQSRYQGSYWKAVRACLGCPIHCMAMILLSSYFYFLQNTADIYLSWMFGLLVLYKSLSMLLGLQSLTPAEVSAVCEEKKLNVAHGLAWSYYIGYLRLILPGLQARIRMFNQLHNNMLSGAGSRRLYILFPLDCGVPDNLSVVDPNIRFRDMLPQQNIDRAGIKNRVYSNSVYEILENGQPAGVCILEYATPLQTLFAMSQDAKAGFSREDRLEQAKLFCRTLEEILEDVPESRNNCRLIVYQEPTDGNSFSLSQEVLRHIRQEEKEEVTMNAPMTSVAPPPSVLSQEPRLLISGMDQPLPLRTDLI
Briefly: 293-mSTING reporter assay. In kind it is cell-based.

The next test addresses hSTING WT (Homo sapiens, UniProt Q86WV6). Briefly: Surface plasmon resonance, hSTING WT. In kind it is binding. Conditions: read-out: hSTING WT SPR (Kd). In general terms: Surface plasmon resonance follows binding to a sensor surface in real time, without labels.
Test [1] addresses T4, hSTING H232 (Homo sapiens, UniProt Q86WV6). The experiment in a line: Surface plasmon resonance, hSTING H232. It counts as binding. Conditions: read-out: hSTING H232 SPR (Kd).
For another test, the target named is hSTING AQ (Homo sapiens, UniProt Q86WV6, G230A/H232R/R293Q). The experiment in a line: Surface plasmon resonance, hSTING AQ. The note with it: read-out: hSTING AQ SPR (Kd). In kind it is binding.
hSTING AQ, sequence (Q86WV6 whole entry G230A/H232R/R293Q): as the sequence (Q86WV6 whole entry H232R) above, with G230A, R293Q counted along it
Test [2] deals with TROP2 positive NCI-H292 Cells. Briefly: Cytokine release from cancer cells (MSD). It counts as cell-based, human. The note with it: 120 hours; for EC50: Homo sapiens. Here is the method:
The cell supernatant was collected and IP-10 and IL-6 released in the cell culture medium was measured using Streptavidin single spot 96 well plates, compatible human antibody pairs, and calibrating solutions commercially available from MesoScale Discovery. Raw data generated by the Meso Scale Discovery (MSD®) SQ120 plate reader was imported into MSD Discovery Workbench software. Unknown sample values were interpolated from standard curves by the software and imported into Graphpad Prism. Each cytokine level was fitted with non-linear regression analysis, using log (agonist) vs. response, variable slope, 4-parameter fit equation in GraphPad Prism.

For a further test, the system named is NCI-H292 cells. The experiment in a line: Immunogenic cell death markers (HMGB1 release, surface calreticulin). In kind it is cell-based, human. The note with it: 48 hours; for EC50: Homo sapiens. The procedure:
Immunogenic cell death elicited by the TROP2 ADC, iSAC, and exatecan were measured by cell surface translocate of calreticulin and release of HMGB1 in the cell culture supernatant. Briefly, TROP2 positive cell line NCI-H292 were seeded into a 96-well flat bottom plate 4 hours prior to the initialization of the assay. Test articles were formulated at a 2× starting concentration in cell culture medium, and samples were serial diluted (1:3) under sterile conditions and added onto the cells in duplicates. After incubation at 37° C. in a CO2 incubator for 48 hours, the cell supernatant was collected for measuring HMGB1 and the adherent cells were collected for calreticulin expression on the cell surface.
HMGB1 released in the supernatant was assessed via sandwich ELISA using mouse anti-human HMGB1 clone 2F6 (Sigma-Aldrich) as the capture, polyclonal rabbit anti-human HMGB1 (Abcam) as secondary, and polyclonal goat anti-rabbit IgG HRP as the detection antibody. The HMGB1 concentrations in the cell culture medium were calculated based a standard curve built on commercially available recombinant human HMGB1 (R&D Systems).
NCI-H292 cells were detached using Accutase (Innovative Cell Technologies) and viability was accessed using a 1:500 dilution of Zombie NIR viability dye. […] Surface calreticulin measures on the live cells were gathered using an Attune NXT Flow Cytometer (ThermoFisher Scientific) to obtain median fluorescence intensity values. All data were fitted with non-linear regression analysis, using log(agonist) vs. response, variable slope, 4 parameter fit equation using GraphPad Prism.

Test [3] concerns the target T4, hSTING H232. The experiment in a line: THP1-Dual KI-hSTING-H232 reporter assay (IRF pathway, secreted Lucia luciferase). In kind it is cell-based. The note with it: THP1-Dual KI-hSTING-H232 cells, 24 hours; read-out: Reporter assay EC50 (nM) THP-1-H232. Also on record: host or cells: THP1-Dual KI-hSTING-H232 (from THP1-Dual KO-STING).
A further test deals with NCI-H441. The experiment in a line: NCI-H441/PBMC co-culture: cancer cell count. In kind it is cell-based, human. Conditions: Table 9. The procedure:
(§1) For the co-culture assay, cancer cells were plated on transparent flat bottom polystyrene plates and allowed to attach overnight. On the next day, serially diluted (1:4) test articles were formulated at 3× starting concentration in complete RPMI media and added onto each well. Human PBMCs were thawed and resuspended in RPMI supplemented with 10% heat-inactivated fetal bovine serum from Hyclone, 1% Penicillin/Streptomycin and 2 mmol/L-glutamax. PBMCs were then added into the same well at a final ratio of PBMCs:cancer cells =30:1. Plates were incubated for 2 or 3 days at 37° C. with 5% CO2 in a cell culture incubator.
(§2) On the day of sample collection, cell culture supernatants were collected and stored at −80° C. until cytokine release analyses were performed. […] After incubation on ice for 1 hour, cells were washed with FACS buffer and fixed with 50 ul/well of 2% PFA (paraformaldehyde) for 20 minutes. Cells were then washed with FACS buffer again and read on Cytek flow cytometer. FACS data analysis was done by Flowjo software to identifymonocytes, B cells, CD4+ T cells, CD8+ T cells, NK cells and Dendritic cells and their activation status. Data from Flowjo was exported and plotted using non-linear regression analysis, log (agonist/inhibitor) vs. response, variable slope, 4-parameter fit equation in GraphPad Prism. […]

For test [4], the system named is TROP2 negative NCI-H460 cells. The experiment in a line: NCI-H460/PBMC co-culture: cancer cell count. It counts as cell-based, human. The note with it: Table 10. Here is the method: as §1, §2
[5] abbreviates: sandwich ELISA, read-out: HMGB-1 Release EC50.

T4 sequence (Q86WV6 whole entry): as the sequence (Q86WV6 whole entry H232R) above, with R232H counted along it
hSTING WT, sequence (Q86WV6 whole entry H232R): as the sequence (Q86WV6 whole entry H232R) above

Consider `CCn1nc(C)cc1C(=O)Nc1nc2cc(C(N)=O)ccc2n1C/C=C/Cn1c(NC(=O)c2cc(C)nn2CC)nc2cc(C(N)=O)cc(OCCCN3CC4(CNCCO4)C3)c21` [Compound 1], for which the EC50 was at most 50 nM on hSTING-R232; at most 50 nM at hSTING-HAQ haplotype; above 150 nM at mSTING; above 100 nM in test [2] (read-out: IL-6 Release EC50); above 100 nM in test [2] (read-out: IP-10 Release EC50); 6.06 nM with NCI-H292 cells (setting [5]). In addition, the EC50 on hSTING H232 [3] is at most 50 nM. The Kd on hSTING WT, at hSTING H232 [1] and on hSTING AQ was at most 20 nM each time. The “IL-6 Release Span” value in [2] is above 10000 pg/mL. Further, in [2], the “IP-10 Release Span” value is reported as above 4000 pg/mL. Moreover, the “HMGB-1 Release Span” value in the test on NCI-H292 cells was found to be 17 ng/mL.

For `CC[C@@]1(O)C(=O)OCc2c1cc1n(c2=O)Cc2c-1nc1cc(F)c(C)c3c1c2[C@@H](N)CC3` [Exatecan, reference compound], the IC50 with NCI-H441 (Homo sapiens) amounted to 0.44 nM; in test [4] (Homo sapiens, NCI-H460/PBMC co-culture (TROP2 negative)), 0.38 nM. Moreover, the “Cancer Cell Count Span (Cell Count)” value is recorded as 5,749 Cell Count with NCI-H441 and 23,530 Cell Count in test [4] (NCI-H460/PBMC co-culture). For the same molecule, the “IL-6 Release Span” value in [2] came out at 1410 pg/mL. For the same molecule, the “IP-10 Release Span” value in [2] worked out at 203 pg/mL. Also, the EC50 is 14.7 nM in test [2] (read-out: IL-6 Release EC50); 0.87 nM in test [2] (read-out: IP-10 Release EC50); 2.08 nM in the test with NCI-H292 cells (setting [5]); 0.19 nM in the test on NCI-H292 cells (surface calreticulin on live cells, read-out: Calreticulin EC50). In addition, in the test with NCI-H292 cells, the “Calreticulin Span (MFI)” value is listed as 783 MFI. For the same molecule, the “HMGB-1 Release Span” value with NCI-H292 cells is recorded as 55 ng/mL.

Values taken from patent US20250108048A1, “STING AGONIST COMPOUNDS AND CONJUGATES” (SUTRO BIOPHARMA, INC., priority 2023, published 2025).
